Measurements reported in patent US20070203225A1, “METHOD OF INCREASING ENDOGENOUS ADIPONECTIN PRODUCTION AND LEPTIN PRODUCTION” (priority 2001, published 2007).
“Also recorded” adds a separate entry of the source.

Legend:
cultured rat adipocytes = experiment: Adiponectin secretion by isolated cultured rat adipocytes over 96 h; format: cell-based
Protocol: Several studies have reported that thiazolidenediones (TZDs), agonists of PPARγ, increase adiponectin expression and circulating levels in animals (Maeda, 2001; Yamauchi, 2001a; Ye, 2003). TZD (10 μM Troglitazone) stimulated of adiponectin secretion from cultured rat adipocytes from 3 different depots (n=6). Mesenteric fat produced the largest amount of adiponectin over 96 hours in culture. (FIG. 5A). Adiponectin secretion from both the control- and TZD-treated adipocytes was well correlated with the glucose utilization (control, r=0.79; p<0.001); (TZD-treated, r=0.84, p=<0.0001, FIG. 5B) showing that, similar to leptin production, glucose metabolism also is involved in the regulation of adiponectin production by adipocytes.
Insulin increased adiponectin production from 3 different fat depots, however as in the experiments with troglitazone, the mesenteric depot produced the most adiponectin (FIG. 6B). Like leptin, both basal and insulin-stimulated adiponectin secretion was highly correlated to glucose utilization (r=0.91, p<0.0001) (FIG. 6C), and inversely related to the proportion of glucose metabolized to lactate (r=−0.81, p<0.0001) (FIG. 6D).
Also paralleling the regulation of leptin, adiponectin secretion by isolated cultured adipocytes was increased during 96 h culture by inhibitors of PDH-K. DTNB (100 μM) increased adiponectin secretion by 40% (p<0.03, n=6, FIG. 7A). DCA (2 mM) increased adiponectin secretion by 23% (p<0.025, n=6, FIG. 7B). The increase in adiponectin induced by DTNB was highly correlated with glucose utilization (r=0.95, p<0.004). Furthermore in adipocytes transfected with antisense directed at PDH-K, adiponectin secretion was stimulated by 24.3±8.4%, p<0.05, n=7, FIG. 7C).
Cell isolation/preparation: Adipocytes are prepared from epididymal fat pads from male Sprague-Dawley rats weighing 300-600 g. Epididymal fat depots are resected from halothane anesthetized rats under aseptic conditions and adipocytes are isolated by collagenase digestion by the Rodbell method (Rodbell M. Metabolism of isolated fat cells. I. Effects of hormones on glucose metabolism and lipolysis. J Biol Chem. 1964; 239: 375-380), with minor modifications as previously described (Mueller W M, Gregoire F M, Stanhope K L, Mobbs C V, Mizuno T M, Warden C H, Stem J S, Havel P J. Evidence that glucose metabolism regulates leptin secretion from isolated adipocytes. Endocrinology 139: 551-558, 1998; Mueller W M, Stanhope K L, Gregoire F, Evans J L, Havel P J. Effects of metformin and vanadium on leptin secretion from cultured rat adipocytes. Obesity Res. 8: 530-539, 2000; Medina E A, Stanhope K L, Mizuno T M, Mobbs C V, Gregoire F, Hubbard N E, Erickson K L, Havel P J. Effects of tumor necrosis factor alpha on leptin secretion and gene expression: relationship to changes of glucose metabolism in isolated rat adipocytes. Int J Obes Relat Metab Disord. 23: 896-903, 1999.). The isolated adipocytes are then incubated for 30 minutes at 37 C before being plated and cultured on Matrigel-coated plates.
Adipocyte Culture: Adipocytes are maintained in culture anchored to a basement membrane matrix (Matrigel, Becton Dickinson, Franklin Lakes, N.J.) or collagen from Cohesion Technologies, (Palo Alto, Calif.). […]

leptin promoter = experiment: Leptin promoter luciferase construct transfected into 3T3-L1 cells; format: cell-based

Row | Compound | increase of adiponectin secretion (cultured rat adipocytes; DTNB 100 μM, DCA 2 mM, 96 h culture, n=6) [%] | effect on adiponectin secretion (in words) (cultured rat adipocytes; PDH kinase inhibitors DTNB and DCA) | adiponectin secretion, 96 hr total (cultured rat adipocytes; 1.6 nM insulin, control 179.9±35.3 ng, n=6) [ng] | effect on adiponectin secretion (in words) (cultured rat adipocytes; insulin (1.6 nM), 96 hour culture) | effect on activity of control plasmid (in words) (leptin promoter; insulin 10 nM, 2-DG 10 mg/dl) | increase of leptin promoter activity (leptin promoter; insulin 0.1 to 10 nM, n=2 each) | effect on leptin promoter activity (in words) (leptin promoter; insulin 0.1 to 10 nM, 2-DG 10 mg/dl on basal and insulin-stimulated (10 nM) activity)
1 | O=C(O)c1cc(SSc2ccc([N+](=O)[O-])c(C(=O)O)c2)ccc1[N+](=O)[O-] [DTNB, 5,5′-Dithiobis(2-nitrobenzoate)] | 40 | increase | – | – | – | – | –
2 | insulin | – | – | 312.3 ± 44 | significant increase; also recorded: increases | unaffected | 3-6 fold | increases
